This test deals with recombinant human cathepsin C (Homo sapiens, UniProt P53634). Put plainly: Recombinant Cathepsin C In Vitro Assay (cleavage of fluorogenic substrate H-Ser-Tyr-AMC). To be noted: 24 pM enzyme, pH 5.5, one hour preincubation with compound at room temperature, read-out: concentration at which 50% cathepsin C inhibition is exhibited. It counts as biochemical. The method, then:
C. Recombinant Cathepsin C In Vitro Assay:
The activity of recombinant human cathepsin C was measured by the cleavage of a fluorogenic substrate, H-Ser-Tyr-AMC. Briefly, 24 pM cathepsin C was incubated with test compound (e.g. inhibitor) in a buffer consisting of 50 mM sodium acetate, 30 mM sodium chloride, 1 mM CHAPS, 1 mM dithiothreitol, 1 mM EDTA, pH 5.5 at room temperature for one hour. After one hour of incubating test compound with cathepsin C, the activity assay was initiated by the addition of an equal volume of 0.010 mM H-Ser-Tyr-AMC in the same buffer. After one hour, the activity assay was stopped by the addition of ⅕ volume of 100 μM E-64. The reaction product was measured on a fluorescence reader set at an excitation wavelength of 360 nm and emission wavelength of 460 nm and equipped with a 400 nm dichroic mirror.

Structures can show the parent of a compound that is named as a salt.

Sequence of recombinant human cathepsin C (P53634 25-463): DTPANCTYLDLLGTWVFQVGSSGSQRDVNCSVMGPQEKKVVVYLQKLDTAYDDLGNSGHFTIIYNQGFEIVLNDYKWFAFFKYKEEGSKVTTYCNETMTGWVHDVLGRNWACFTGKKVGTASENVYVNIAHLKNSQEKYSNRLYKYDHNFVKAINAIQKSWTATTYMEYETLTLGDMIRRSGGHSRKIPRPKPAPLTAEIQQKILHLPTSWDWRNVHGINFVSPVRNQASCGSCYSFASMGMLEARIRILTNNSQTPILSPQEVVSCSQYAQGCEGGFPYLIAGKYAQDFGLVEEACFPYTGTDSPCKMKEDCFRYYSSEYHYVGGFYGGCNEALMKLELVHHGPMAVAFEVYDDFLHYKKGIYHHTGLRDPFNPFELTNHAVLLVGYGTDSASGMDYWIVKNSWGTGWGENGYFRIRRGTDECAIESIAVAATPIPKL

On to `C[C@H](N)C(=O)N[C@H](/C=C/C(=O)NCc1ccccc1)CCc1ccccc1` [Example 1, (2E,4S)-4-(L-alanylamino)-6-phenyl-N-(phenylmethyl)-2-hexenamide hydrochloride], for which the IC50 was roughly 100 nM.

As to `C[C@H](N)C(=O)N[C@H](/C=C/C(=O)N(C)C)CCc1ccccc1` [Example 3, (2E,4S)-4-(L-alanylamino)-N,N-dimethyl-6-phenyl-2-hexenamide hydrochloride], the IC50 was roughly 1000 nM.

These data come from US20120142668A1, “CATHEPSIN C INHIBITORS” (priority 2009, published 2012).
